# Results reported in patent US20240024273A1, “TOPICAL ADMINISTRATION OF 2-(DIETHYLAMINO)ETHYL 2-(4-ISOBUTYLPHENYL)PROPRIONATE FOR TREATMENT OF DISEASES” (TECHFIELDS PHARMA CO., LTD., priority 2020, published 2024).
# Read-outs that look alike come from different tables or passages of the source.
# Experiments:
# [1] = 28-day GLP repeated dermal dose toxicity and toxicokinetics study; parameters: species or system Rats; settings: rat, in vivo; for Cmax / AUC(0-t): topical, 100 mg/kg/day, Day 28; for AUC(0-t): read-out: AUC0-24 h
# [2] = system: healthy male and female volunteers; assay: Phase 1 clinical study: skin irritation assessment (dermal response score 0-7); type: in vivo, human; settings: all dose groups
# Method: Skin irritation due to study drug application was measured by a dermal response score of 0-7 assigned for each study drug application site prior to and 30 min following each dose administration. A score of 6 or 7 was considered a severe reaction. Pre-dose assessments during the multiple dosing served as the 12 hour post-dose assessment of the prior dose.
# LPS induced fever = LPS induced fever model; type: in vivo, SD Rats; settings: 30 and 90 mg/kg; 4 and 6 hour time points
# [3] = Battery of nonclinical pharmacology and toxicology studies (overall); settings: in vivo
# Excerpt: A battery of pharmacology and toxicology studies including a GLP acute dermal maximum tolerated dose study in rats, a GLP acute dermal maximum tolerated dose study in Beagle dogs, a non-GLP 14-day repeated dermal dose toxicity study in rats, a non-GLP 14-day repeated dermal dose toxicity study in Beagle dogs, a 28-day GLP repeated dermal dose toxicity and toxicokinetics study in rats with 14-day recovery, a 28-day GLP repeated dermal dose toxicity and toxicokinetics study in Beagle dogs with 14-day recovery, a GLP bacterial reverse mutation assay (Ames), a GLP in vitro chromosome aberration assay in CHO-WBL Cells, a GLP in vivo bone marrow micronucleus assay in rats, a behavioral effects in rats using the functional observational battery, a rat respiratory safety pharmacology study, a cardiovascular telemetry study in the unrestrained conscious non-naïve dog, a skin irritation study in rabbits, a study on embryo-fetal development in rats, a 39-week GLP repeated dermal dose toxicity and toxicokinetics study in mini pigs with 4-week recovery, a 26-week GLP repeated dermal dose toxicity and toxicokinetics study in rats with 4-week recovery, a study on fertility and early embryonic development to implantation in rats, a study on embryo-fetal development in rabbits, and a sensitization test in guinea pigs were conducted.
# [4] = system: Mild to Moderate Osteoarthritis of the Knee; assay: Phase 2 study: subject's and physician's global assessment of response to therapy; type: in vivo, human
# Excerpt: 3.9.3. Exploratory Efficacy Endpoints: • 1. Subject's global assessment of disease status of the target knee at 2, 4, 8, and 12 weeks of treatment; • 2. Investigator's global assessment of disease status of the target knee at 2, 4, 8, and 12 weeks of treatment; • 3. Subject's global assessment of response to therapy of the target knee at 2, 4, 8, and 12 weeks of treatment; • 4. Investigator's global assessment of response to therapy of the target knee at 2, 4, 8, and 12 weeks of treatment; • 5. Change from Baseline over time in VAS pain scores for the target knee from Daily Diary data; • 6. Amount of rescue medication (acetaminophen) consumed per day for target knee pain.
# Data for the exploratory efficacy endpoints will be summarized using descriptive statistics.
# [5] = Phase 1 clinical study: plasma pharmacokinetics of prodrug and ibuprofen; type: in vivo, human; settings: steady-state, 70 mg
structure (smiles),measurement,setting,value
CCN(CC)CCOC(=O)C(C)c1ccc(CC(C)C)cc1 (stereo not shown) [2-(diethylamino)ethyl 2-(4-isobutylphenyl)propionate],NOAEL at 28 days,"[1]; both sexes, topical or ocular, 28-day dermal, male and female, read-out: systemic NOAEL",100 mg/kg/day
same,Cmax,"[1]; female, females",46800 ng/mL
same,AUC(0-t),"[1]; female, females",422 µg·h/mL
same,Cmax,"[1]; male, males",47400 ng/mL
same,AUC(0-t),"[1]; male, males",165 µg·h/mL
same,NOAEL at 28 days,"[1]; ulcers at application site at ≥100 mg/kg/day, read-out: local NOAEL",25 mg/kg/day
same,maximum skin irritation score (0-7),[2],≤ 3
same,LPS induced fever,LPS induced fever,LPS induced fever was attenuated by middle (30 mg/kg) and high
same,overall safety,[3],appeared to be safe and were generally well tolerated
same,Physician's global assessment of response to therapy: Excellent,[4]; 8.75 mg/knee (BID),11.1%
same,Physician's global assessment of response to therapy: fair,[4]; 8.75 mg/knee (BID),36.5%
same,Physician's global assessment of response to therapy: good,[4]; 8.75 mg/knee (BID),38.1%
same,Physician's global assessment of response to therapy: none,[4]; 8.75 mg/knee (BID),7.9%
same,Physician's global assessment of response to therapy: poor,[4]; 8.75 mg/knee (BID),6.3%
same,Physician's global assessment of response to therapy: total percentage of excellent and good,[4]; 8.75 mg/knee (BID),49.2%
same,Subject's global assessment of response to therapy: Excellent,[4]; 8.75 mg/knee (BID),7.8%
same,Subject's global assessment of response to therapy: fair,[4]; 8.75 mg/knee (BID),29.7%
same,Subject's global assessment of response to therapy: good,[4]; 8.75 mg/knee (BID),43.8%
same,Subject's global assessment of response to therapy: none,[4]; 8.75 mg/knee (BID),9.4%
same,Subject's global assessment of response to therapy: poor,[4]; 8.75 mg/knee (BID),9.4%
same,Subject's global assessment of response to therapy: total percentage of excellent and good,[4]; 8.75 mg/knee (BID),51.6%
same,Physician's global assessment of response to therapy: Excellent,[4]; 17.5 mg/knee (BID),23.2%
same,Physician's global assessment of response to therapy: fair,[4]; 17.5 mg/knee (BID),18.8%
same,Physician's global assessment of response to therapy: good,[4]; 17.5 mg/knee (BID),43.5%
same,Physician's global assessment of response to therapy: none,[4]; 17.5 mg/knee (BID),5.8%
same,Physician's global assessment of response to therapy: poor,[4]; 17.5 mg/knee (BID),8.7%
same,Physician's global assessment of response to therapy: total percentage of excellent and good,[4]; 17.5 mg/knee (BID),66.7%
same,Subject's global assessment of response to therapy: Excellent,[4]; 17.5 mg/knee (BID),20.3%
same,Subject's global assessment of response to therapy: fair,[4]; 17.5 mg/knee (BID),17.2%
same,Subject's global assessment of response to therapy: good,[4]; 17.5 mg/knee (BID),50.0%
same,Subject's global assessment of response to therapy: none,[4]; 17.5 mg/knee (BID),7.8%
same,Subject's global assessment of response to therapy: poor,[4]; 17.5 mg/knee (BID),4.7%
same,Subject's global assessment of response to therapy: total percentage of excellent and good,[4]; 17.5 mg/knee (BID),70.3%
same,Physician's global assessment of response to therapy: Excellent,[4]; 35 mg/knee (BID),18.8%
same,Physician's global assessment of response to therapy: fair,[4]; 35 mg/knee (BID),17.2%
same,Physician's global assessment of response to therapy: good,[4]; 35 mg/knee (BID),42.2%
same,Physician's global assessment of response to therapy: none,[4]; 35 mg/knee (BID),7.8%
same,Physician's global assessment of response to therapy: poor,[4]; 35 mg/knee (BID),14.1%
same,Physician's global assessment of response to therapy: total percentage of excellent and good,[4]; 35 mg/knee (BID),60.9%
same,Subject's global assessment of response to therapy: Excellent,[4]; 35 mg/knee (BID),18.0%
same,Subject's global assessment of response to therapy: fair,[4]; 35 mg/knee (BID),18.3%
same,Subject's global assessment of response to therapy: good,[4]; 35 mg/knee (BID),49.2%
same,Subject's global assessment of response to therapy: none,[4]; 35 mg/knee (BID),9.8%
same,Subject's global assessment of response to therapy: poor,[4]; 35 mg/knee (BID),4.9%
same,Subject's global assessment of response to therapy: total percentage of excellent and good,[4]; 35 mg/knee (BID),67.2%
same,relative bioavailability of spray vs topical application (plasma ibuprofen),[5],comparable at steady-state
